Patent publication US4914086A, “Method for treating African human and veterinary trypanosomiases” (priority 1987, dated 1990)

Tested on: T. b. brucei EATRO 110
Test: Drug screen, acute EATRO 110 mouse infection (Tables 1, 3)
Format: in vivo, Trypanosoma brucei brucei (in Swiss-Webster mice)
Conditions: for activity in words: 300 mg/kg; for # Cured/Total / % Cured: Table 1, treatment begun 24 h post infection
From the text: T. b. brucei EATRO 110 isolate was maintained as described (Bacchi, C. J., H. C. Nathan, S. H. Hutner, P. P. McCann and A. Sjoerdsma; Polyamine metabolism: a potential chemotherapeutic target in trypanosomes. Science 210: 332-334, 1980). It produces an acute, rapidly fatal parasitemia which is lethal to mice 3-5 days after inoculation. Two T. B. brucei strains, TREU 667 and LUMP 1001 developed by Jennings and coworkers (Jennings, F. W., D. D. Whitelaw and G. M. Urquhart; The relationship between duration of infection with Trypanosoma brucei in mice and the efficacy of chemotherapy. Parasitology 75: 143-153, 1977/Jennings, F. W. and G. D. Gray; Relapsed parasitemia following chemotherapy of chronic T. brucei infections in mice and its relation to cerebral trypanosomes; Contr. Microbiol. Immunol. 7 147-154, 1983) were used as CNS models. Both produce infections which are refractory to Berenil® (diminazene aceturate) and develop within 21 days after inoculation. They are not usually fatal until >40 days after inoculation. LUMP 1001 causes a more virulent CNS infection than TREU 667, and is regarded as more difficult to cure (Jennings, F. W. and G. D. Gray. Relapsed parasitemia following chemotherapy of chronic T. brucei infections in mice and its relation to cerebral trypanosomes. Contr. Microbiol. Immunol. 7 147-154, 1983).
Swiss-Webster (25-30 g) mice were used throughout. In the EATRO 110 model, groups of 100 mice were infected (10^5 trypanosomes/mouse) and the infection was allowed to develop 24 hours before commencing therapy. Animals were divided into groups of 5 before treatment. Cured animals survived >30 days beyond deaths of controls. All compounds were administered by i.p. injection.
Other methods as in Table 1.

| Compound | activity in words | # Cured/Total (250 mg/kg i.p.) | % Cured (250 mg/kg i.p.) [%] | # Cured/Total (300 mg/kg i.p.) | % Cured (300 mg/kg i.p.) [%] |
| --- | --- | --- | --- | --- | --- |
| O=c1ncnc2n([C@H]3O[C@@H](CO)[C@H](O)[C@@H]3O)[nH]cc1-2 (stereo in doubt) [Allopurinol Riboside, reference compound] | completely inactive | 0/5 | 0 | – | – |
| Oc1ncnc2[nH]ncc12 [Allopurinol, reference compound] | completely inactive | – | – | 0/5 | 0 |
